From patent publication US20160362416A1, “ANTIVIRAL COMPOUNDS” (Gilead Sciences, Inc., priority 2012, published 2016)

How the values were obtained:
[1] = test system: stable HCV 1a RLuc replicon cells (genotype 1a H77 replicon); assay: HCV genotype 1a RLuc replicon reporter assay; format: cell-based; settings: Hepatitis C virus; stable genotype 1a H77 RLuc replicon cells, 72 hours
[2] = test system: stable HCV 2a JFH-1 Rluc replicon cells (L31 present in NS5A); assay: HCV genotype 2a JFH-1 RLuc replicon reporter assay; format: cell-based; settings: Hepatitis C virus, 72 h, read-out: 2a JFH (nM)
[3] = test system: NS5A chimeric genotype 2a JFH-1 replicon with genotype 2a J6 strain NS5A gene (M31); assay: HCV genotype 2a J6 NS5A chimeric replicon assay, transient (t); format: cell-based; settings: Hepatitis C virus, 72 h, read-out: 2a J6 (t) (nM)
[4] = test system: NS5A chimeric genotype 2a JFH-1 replicon with genotype 2b MD2b-1 strain NS5A gene (M31); assay: HCV genotype 2b NS5A chimeric replicon assay, transient (t); format: cell-based; settings: Hepatitis C virus, 72 h, read-out: 2b (t) (nM)
Outline: (§1)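 EC50 derived by non-linear regression of Renilla luciferase signal measured in lysates 72 h after adding 3-fold serial compound dilutions. Replicons: stable genotype 1b Con1 cells; transient Huh-Lunet transfections of NS5A chimeras—4a ED43 or 3a S52 in Con1, 2b MD2b-1 (M31) in JFH-1.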

[5] = test system: NS5A chimeric genotype 1b Con1 replicon with genotype 3a S52 strain NS5A gene; assay: HCV genotype 3a NS5A chimeric replicon assay; format: cell-based; settings: Hepatitis C virus, 72 h, read-out: 3a (nM)
Outline: as §1

[6] = IV and PO single dose pharmacokinetic studies in SD rats; format: in vivo; settings: Sprague-Dawley, rat, plasma, male SD rats, IV infusion 1 mg/kg, oral gavage 2 mg/kg, read-out: Rat % F
Outline: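 Fasted male Sprague-Dawley rats (n=3/group) dosed IV by 30-min jugular infusion at 1 mg/kg or by oral gavage at 2 mg/kg, in ethanol/PEG 400 vehicles at pH 2.0–2.2. Serial plasma to 24 h quantified by LC/MS/MS (SRM); non-compartmental analysis, linear-trapezoidal AUC, %F as oral vs IV AUC.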

[7] = test system: L31V/Y93H in genotype 1b NS5A replicon; assay: Resistance mutant replicon assay, genotype 1b NS5A L31V/Y93H; format: cell-based, HCV; settings: Hepatitis C virus, read-out: 1b L31V/Y93H (nM)
Outline: (§2)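 Site-directed mutagenesis → mutant Pi-RLuc replicon RNA → transient transfection, cured-51 Huh-7 cells → 3-fold serial cpd dilutions from DMSO stock, 72 h → RLuc read → EC50, non-linear regression.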

[8] = test system: Y93H in genotype 1a NS5A replicon; assay: Resistance mutant replicon assay, genotype 1a NS5A Y93H; format: cell-based, HCV; settings: Hepatitis C virus, read-out: 1a Y93H (nM)
Outline: as §2

[9] = test system: Y93N in genotype 1a NS5A replicon; assay: Resistance mutant replicon assay, genotype 1a NS5A Y93N; format: cell-based, HCV; settings: Hepatitis C virus, read-out: 1a Y93N (nM)
Outline: as §2

[10] = test system: Y93H in genotype 3a NS5A replicon; assay: Resistance mutant replicon assay, genotype 3a NS5A Y93H; format: cell-based, HCV; settings: Hepatitis C virus, read-out: 3a Y93H (nM)
Outline: as §2

COC(=O)N[C@H](C(=O)N1[C@@H](C)CC[C@H]1c1nc2ccc3cc4c(cc3c2[nH]1)OCc1cc(-c2cnc([C@@H]3CC[C@H](C)N3C(=O)[C@@H](NC(=O)OC)C3C[C@@H](C)O[C@H](C)C3)[nH]2)ccc1-4)C(C)C (some centres unmarked) [Example AS]
EC50 [1]: 0.026 nM | EC50 [2]: 0.028 nM | EC50 [3]: 0.015 nM | EC50 [4]: 0.026 nM | EC50 [5]: 0.051 nM | bioavailability [6]: 17.4% | EC50 [7]: 2.03 nM | EC50 [8]: 0.148 nM | EC50 [9]: 0.325 nM | EC50 [10]: 0.732 nM

COC(=O)N[C@H](C(=O)N1[C@@H](C)CC[C@H]1c1ncc(-c2ccc3c(c2)COc2cc4c(ccc5nc([C@@H]6CC[C@H](C)N6C(=O)[C@@H](NC(=O)OC)C6C[C@@H](C)O[C@H](C)C6)[nH]c54)cc2-3)[nH]1)C1C[C@@H](C)O[C@H](C)C1 (stereo partly drawn) [Example AU, Methyl {(1S)-1-[(2R,6R)-2,6-dimethyltetrahydro-2H-pyran-4-yl]-2-[(2S,5S)-2-(5-{2-[(2S,5S)-1-{(2S)-2-[(2R,6R)-2,6-dimethyltetrahydro-2H-pyran-4-yl]-2-[(methoxycarbonyl)amino]acetyl}-5-methylpyrrolidin-2-yl]-1,11-dihydroisochromeno[4′,3′:6,7]naphtho[1,2-d]imidazol-9-yl}-1H-imidazol-2-yl)-5-methylpyrrolidin-1-yl]-2-oxoethyl}carbamate]
EC50 [1]: 0.029 nM | EC50 [2]: 0.013 nM | EC50 [3]: 0.008 nM | EC50 [4]: 0.017 nM | EC50 [5]: 0.029 nM | bioavailability [6]: 16.4% | EC50 [7]: 0.059 nM | EC50 [8]: 0.026 nM | EC50 [9]: 0.089 nM | EC50 [10]: 0.13 nM
